Data on 6 molecules can be found in ChEMBL document CHEMBL1153012, “Synthesis and antibacterial activity of novel 5-(4-methyl-1H-1,2,3-triazole) methyl oxazolidinones” (2009).

Each structure is given as a SMILES string. Converted amounts (≈) assume the structure as drawn.

Common to all, as to type: functional
For assay [1], the system named is Escherichia coli. As to the kind of experiment: Antibacterial activity against Escherichia coli ATCC 25922 by agar dilution method.
In assay [2] the test system is Streptococcus pneumoniae. Put plainly: Antibacterial activity against Streptococcus pneumoniae by agar dilution method. (In agar dilution, organisms are placed on agar that contains the substance at set levels.)
In assay [3] the test system is Staphylococcus. Put plainly: Antibacterial activity against methicillin-sensitive coagulase-negative Staphylococcus by agar dilution method.
Assay [4] deals with Staphylococcus aureus. As to the kind of experiment: Antibacterial activity against methicillin-susceptible Staphylococcus aureus by agar dilution method.
The test system of assay [5] is Staphylococcus aureus. As to the kind of experiment: Antibacterial activity against methicillin-resistant Staphylococcus aureus by agar dilution method.
Assay [6] concerns Staphylococcus aureus. As to the kind of experiment: Antibacterial activity against Staphylococcus aureus ATCC 25923 by agar dilution method.
The test system of assay [7] is Enterococcus. As to the kind of experiment: Antibacterial activity against vancomycin-resistant Enterococcus by agar dilution method.
Assay [8] relates to Staphylococcus aureus. Put plainly: Antibacterial activity against Staphylococcus aureus ATCC 25923 by agar dilution method in presence of human plasma. The settings on record: ATCC 25923, Plasma.
Assay [9] concerns Moraxella catarrhalis. As to the kind of experiment: Antibacterial activity against Moraxella catarrhalis by agar dilution method.
Assay [10] has as its system Haemophilus influenzae. As to the kind of experiment: Antibacterial activity against Haemophilus influenzae isolate 285 by agar dilution method.
Assay [11] deals with Haemophilus influenzae. As to the kind of experiment: Antibacterial activity against Haemophilus influenzae isolate 283 by agar dilution method.
Assay [12] deals with Enterococcus. Put plainly: Antibacterial activity against vancomycin-sensitive Enterococcus by agar dilution method.
Assay [13] deals with Haemophilus influenzae. Put plainly: Antibacterial activity against Haemophilus influenzae isolate 280 by agar dilution method.
The subject of assay [14] is Staphylococcus. As to the kind of experiment: Antibacterial activity against methicillin resistant coagulase-negative Staphylococcus by agar dilution method.
Assay [15] has as its system Haemophilus influenzae. Put plainly: Antibacterial activity against Haemophilus influenzae isolate 282 by agar dilution method.
Assay [16] has as its system Haemophilus influenzae. As to the kind of experiment: Antibacterial activity against Haemophilus influenzae ATCC 49247 by agar dilution method.

Consider `CCCCCCC(=O)N1CCN(c2ccc(N3C[C@H](Cn4cc(C)nn4)OC3=O)cc2F)CC1`, for which the MIC in assay [1] was > 64 µg/mL; in assay [2], 8 µg/mL (≈ 16.9 µM); in assay [3], 4 µg/mL (≈ 8.46 µM); in [4] it was 8 µg/mL (≈ 16.9 µM); in [5], 8 µg/mL (≈ 16.9 µM); in [6], 8 µg/mL (≈ 16.9 µM). Also, the MIC in assay [7] is 4 µg/mL (≈ 8.46 µM); in assay [8], > 64 µg/mL; in assay [9] it was 64 µg/mL (≈ 135 µM); in assay [10] it was > 64 µg/mL; in assay [11] it was > 64 µg/mL; in [12], 4 µg/mL (≈ 8.46 µM). Moreover, the MIC was > 64 µg/mL in assay [13], 8 µg/mL (≈ 16.9 µM) in assay [14], > 64 µg/mL in assay [15] and > 64 µg/mL in assay [16].

Consider `Cc1cn(C[C@H]2CN(c3ccc(N4CCN(C(=O)C5CCC5)CC4)c(F)c3)C(=O)O2)nn1`, for which the MIC in assay [1] is > 64 µg/mL; in assay [2] it was 4 µg/mL (≈ 9.04 µM); in assay [3], 2 µg/mL (≈ 4.52 µM); in assay [4], 2 µg/mL (≈ 4.52 µM); in assay [5], 2 µg/mL (≈ 4.52 µM); in assay [6], 4 µg/mL (≈ 9.04 µM). Moreover, the MIC in assay [7] stood at 2 µg/mL (≈ 4.52 µM); in assay [8] it was 16 µg/mL; in [9] it was 32 µg/mL (≈ 72.3 µM); in assay [10], 32 µg/mL (≈ 72.3 µM); in assay [11] it was 32 µg/mL (≈ 72.3 µM); in [12], 2 µg/mL (≈ 4.52 µM). Moreover, the MIC is 32 µg/mL (≈ 72.3 µM) in [13], 2 µg/mL (≈ 4.52 µM) in [14], 32 µg/mL (≈ 72.3 µM) in [15] and 32 µg/mL (≈ 72.3 µM) in [16].

With `CCCCCC(=O)N1CCN(c2ccc(N3C[C@H](Cn4cc(C)nn4)OC3=O)cc2F)CC1`, the MIC was > 64 µg/mL in assay [1]; 8 µg/mL (≈ 17.4 µM) in assay [2]; 2 µg/mL (≈ 4.36 µM) in [3]; 2 µg/mL (≈ 4.36 µM) in [4]; 4 µg/mL (≈ 8.72 µM) in assay [5]; 4 µg/mL (≈ 8.72 µM) in assay [6]. The MIC in assay [7] was 2 µg/mL (≈ 4.36 µM); in [8], > 64 µg/mL; in assay [9], > 64 µg/mL; in assay [10] it was > 64 µg/mL; in [11], > 64 µg/mL; in assay [12], 2 µg/mL (≈ 4.36 µM). Moreover, the MIC in assay [13] is > 64 µg/mL; in [14] it was 2 µg/mL (≈ 4.36 µM); in assay [15], > 64 µg/mL; in assay [16], > 64 µg/mL.

With `Cc1cn(C[C@H]2CN(c3ccc(N4CCN(C(=O)C(F)(F)F)CC4)c(F)c3)C(=O)O2)nn1`, the MIC in assay [1] is 8 µg/mL (≈ 17.5 µM); in [2], 1 µg/mL (≈ 2.19 µM); in assay [3], 1 µg/mL (≈ 2.19 µM); in [4] it was 1 µg/mL (≈ 2.19 µM); in assay [5], 2 µg/mL (≈ 4.38 µM); in assay [6], 4 µg/mL (≈ 8.76 µM). For the same molecule, the MIC in assay [7] turned out to be 1 µg/mL (≈ 2.19 µM); in [8] it was 8 µg/mL; in [9], 8 µg/mL (≈ 17.5 µM); in assay [10], 64 µg/mL (≈ 140 µM); in assay [11] it was 64 µg/mL (≈ 140 µM); in assay [12], 1 µg/mL (≈ 2.19 µM). For the same molecule, the MIC in assay [13] is 64 µg/mL (≈ 140 µM); in assay [14] it was 1 µg/mL (≈ 2.19 µM); in assay [15], 64 µg/mL (≈ 140 µM); in assay [16], 64 µg/mL (≈ 140 µM).

As for `Cc1cn(C[C@H]2CN(c3ccc(N4CCN(C(=O)Cc5ccccc5)CC4)c(F)c3)C(=O)O2)nn1`, the MIC in assay [1] is > 64 µg/mL; in assay [2] it was 2 µg/mL (≈ 4.18 µM); in [3], 2 µg/mL (≈ 4.18 µM); in assay [4], 2 µg/mL (≈ 4.18 µM); in assay [5] it was 2 µg/mL (≈ 4.18 µM); in assay [6] it was 4 µg/mL (≈ 8.36 µM). For the same molecule, the MIC was 1 µg/mL (≈ 2.09 µM) in [7]; > 64 µg/mL in assay [8]; 16 µg/mL (≈ 33.4 µM) in assay [9]; > 64 µg/mL in assay [10]; > 64 µg/mL in [11]; 2 µg/mL (≈ 4.18 µM) in assay [12]. Also, the MIC was > 64 µg/mL in assay [13], 2 µg/mL (≈ 4.18 µM) in [14], > 64 µg/mL in [15] and > 64 µg/mL in [16].

As to `Cc1cn(C[C@H]2CN(c3ccc(N4CCN(C(=O)CC(C)C)CC4)c(F)c3)C(=O)O2)nn1`, the MIC was > 64 µg/mL in assay [1]; 4 µg/mL (≈ 9 µM) in [2]; 2 µg/mL (≈ 4.5 µM) in assay [3]; 2 µg/mL (≈ 4.5 µM) in [4]; 2 µg/mL (≈ 4.5 µM) in assay [5]; 4 µg/mL (≈ 9 µM) in assay [6]. The MIC in assay [7] is 4 µg/mL (≈ 9 µM); in assay [8], 32 µg/mL; in assay [9] it was 32 µg/mL (≈ 72 µM); in [10], > 64 µg/mL; in assay [11], > 64 µg/mL; in assay [12], 2 µg/mL (≈ 4.5 µM). The MIC in assay [13] was > 64 µg/mL; in assay [14], 2 µg/mL (≈ 4.5 µM); in assay [15], > 64 µg/mL; in assay [16], 64 µg/mL (≈ 144 µM).
